Measured values as given in patent US6589916B1, “Method and composition for treating and promoting the growth of plants” (Amvac Chemical Corporation, priority 1999, dated 2003).

What was measured:
[1] = system: live grass (Bermudagrass (Common, Midiron, and Ormond), Tifway II, Tifway 419, Tifdwarf, and Tifgreen 328 grasses); experiment: Methyldithiocarbamate trials: spray treatment of live golf course grass plots, leaf appearance scored; type: in vivo; design: key to score for appearance of the grass leaves: 0: burning of leaf tissue; 1: bronzing of leaf tissue; 2: burning of the tip of the leaf tissue; 3: No burning or change in color of the leaf tissue; 4: good greening of the leaf tissue; 5: excellent greening of the leaf tissue
Procedure: The effect of the application of methylammonium methyldithiocarbamate to live grass was determined in the following manner. Dilute aqueous solutions of three salts of the same dithiocarbamic acid derivative were prepared: methylammonium methyldithiocarbamate, sodium methyldithiocarbamate, and potassium methyldithiocarbamate. The solutions were prepared by mixing the dithiocarbamic acid derivative with water to achieve a concentration of between about 1.2 and 3.5% by weight.
Three plots of grass of substantially equal type, quality, color, and size were selected at each of several golf courses throughout the state of Florida. The grass at these courses consisted of one or a combination of Bermudagrass (Common, Midiron, and Ormond), Tifway II, Tifway 419, Tifdwarf, and Tifgreen 328 grasses. To each of these plots one of the methyldithiocarbamate salts were applied via an ordinary above-ground spraying system in an amount equivalent to between about 0.5 to 40 lbs of methyldithiocarbamate salt per acre of soil. All applications were watered in with 1/2 inch of water within 20 minutes of treatment, which moved the dithiocarbamic acid derivative into and slightly below the root zone of the grass.
The results of treating each plot with the methyldithiocarbamate salts were evaluated from 1 to 2 weeks after treatment by examining the appearance of the grass leaves. A score was assigned to each plot according to the following scale: 0=burning of leaf tissue; 1=bronzing of leaf tissue; 2=burning of the tip of the leaf tissue; 3=No burning or change in color of the leaf tissue; 4=good greening of the leaf tissue; 5=excellent greening of the leaf tissue. Where two values were assigned, the plot contained a substantial number of grass leaves of one score and a substantial number of the other score.

Morning Glory = settings: stated in U.S. Pat. No. 2,766,554; cited from earlier work
[2] = four hours ultraviolet light from an arc; U.S. Pat. No. 2,835,625; cited from earlier work
[3] = 1. Grenelefe Resort, treated February 1998, evaluation 2 weeks after treatment
[4] = 1. Grenelefe Resort, treated January 1998, evaluation 2 weeks after treatment
[5] = 1. Grenelefe Resort, treated March 1998, evaluation 2 weeks after treatment
[6] = 2. Long Boat Key, treated April 1998, evaluation 1 week after treatment
[7] = 2. Long Boat Key, treated February 1998, evaluation 2 weeks after treatment
[8] = 2. Long Boat Key, treated March 1998, evaluation 2 weeks after treatment
[9] = 3. Indian River Club, treated April 1998, evaluation 1 week after treatment
[10] = 3. Indian River Club, treated March 1998, evaluation 2 weeks after treatment
[11] = 3. Indian River Club, treated May 1998, evaluation 1 week after treatment
[12] = 4. La Cita C.C., treated June 1998, evaluation 1 week after treatment
[13] = 4. La Cita C.C., treated March 1998, evaluation 1 week after treatment
[14] = 4. La Cita C.C., treated September 1998, evaluation 1 week after treatment
[15] = 5. Wellington C.C., treated April 1998, evaluation 2 weeks after treatment
[16] = 6. Dodgertown C.C., treated April 1998, evaluation 1 week after treatment
[17] = 6. Dodgertown C.C., treated May 1998, evaluation 1 week after treatment
[18] = 7. Westchester C.C., treated April 1998, evaluation 1 week after treatment
[19] = 8. President Club, treated July 1998, evaluation 1 week after treatment
[20] = 8. President Club, treated May 1998, evaluation 1 week after treatment
[21] = 9. Vero Beach C.C., treated June 1998, evaluation 1 week after treatment
[22] = 10. Admirals Cove, treated July 1998, evaluation 1 week after treatment
[23] = 11. Moorings C.C., treated August 1998, evaluation 1 week after treatment
[24] = 12. Hawks Nest C.C., treated August 1998, evaluation 1 week after treatment
[25] = 13. Woodmont C.C., treated June 1998, evaluation 1 week after treatment
[26] = 13. Woodmont C.C., treated September 1998, evaluation 1 week after treatment

| Compound | score for appearance of the grass leaves [1, 3] | score for appearance of the grass leaves [1, 4] | score for appearance of the grass leaves [1, 5] | score for appearance of the grass leaves [1, 6] | score for appearance of the grass leaves [1, 7] | score for appearance of the grass leaves [1, 8] | score for appearance of the grass leaves [1, 9] | score for appearance of the grass leaves [1, 10] | score for appearance of the grass leaves [1, 11] | score for appearance of the grass leaves [1, 12] | score for appearance of the grass leaves [1, 13] | score for appearance of the grass leaves [1, 14] | score for appearance of the grass leaves [1, 15] | score for appearance of the grass leaves [1, 16] | score for appearance of the grass leaves [1, 17] | score for appearance of the grass leaves [1, 18] | score for appearance of the grass leaves [1, 19] | score for appearance of the grass leaves [1, 20] | score for appearance of the grass leaves [1, 21] | score for appearance of the grass leaves [1, 22] | other results |
| --- | --- | --- | --- | --- | --- | --- | --- | --- | --- | --- | --- | --- | --- | --- | --- | --- | --- | --- | --- | --- | --- |
| CN.CNC(=S)S [METHYL AMMONIUM, methylammonium methyldithiocarbamate] | 3-4 | 4 | 4 | 4 | 4 | 4 | 4 | 4 | 4 | 5 | 5 | 5 | 5 | 4 | 4 | 4 | 5 | 5 | 4-5 | 4 | score for appearance of the grass leaves [1, 23]: 5; score for appearance of the grass leaves [1, 24]: 5; score for appearance of the grass leaves [1, 25]: 5; score for appearance of the grass leaves [1, 26]: 5; appearance of the grass leaf tissue, in words ([1]; Grenelefe Resort, February): improved only marginally in color; appearance of the grass leaf tissue, summary in words ([1]; all treated areas of Table 2): either good or excellent greening of the leaf tissue; results compared with potassium methyldithiocarbamate ([1]; all trials of Table 2): far better results than the potassium methyldithiocarbamate; results compared with sodium methyldithiocarbamate ([1]; all trials of Table 2): better results than the sodium methyldithiocarbamate; eradication of Morning Glory (Morning Glory): excellent eradicator of Morning Glory |
| CNC(=S)[S-].[K+] [POTASSIUM, potassium methyldithiocarbamate] | 1 | 0 | 0-1 | 1-2 | 1 | 1-2 | 0-1 | 1 | 1-2 | 1 | 2 | 2 | 1 | 0 | 1-2 | 1 | 2-3 | 0 | 1 | 1-2 | score for appearance of the grass leaves [1, 23]: 1; score for appearance of the grass leaves [1, 24]: 0; score for appearance of the grass leaves [1, 25]: 1-2; score for appearance of the grass leaves [1, 26]: 2-3 |
| CNC(=S)[S-].[Na+] [SODIUM, sodium methyldithiocarbamate] | 3 | 3 | 3-4 | 3 | 2 | 3 | 3 | 3 | 3-4 | 3-4 | 4 | 4 | 3 | 3 | 3-4 | 3 | 4 | 4 | 3-4 | 3-4 | score for appearance of the grass leaves [1, 23]: 4; score for appearance of the grass leaves [1, 24]: 4; score for appearance of the grass leaves [1, 25]: 4; score for appearance of the grass leaves [1, 26]: 4 |
| CC(C)OC(=O)SC(=S)N(C)C [isopropoxycarbonyl dimethyldithiocarbamate] |  |  |  |  |  |  |  |  |  |  |  |  |  |  |  |  |  |  |  |  | biological activity after ultraviolet light treatment [2]: without losing any biological activity |
